Measurements as given in US20100254996A1, “SYNERGISTIC TREATMENT OF CELLS THAT EXPRESS EPHA2 AND ERBB2” (MEDIMMUNE, LLC, priority 2007, published 2010).

Target: T1, ErbB2 (Homo sapiens, UniProt P04626)
T1 construct: expressed in transfected cells; host or cells: MCF10A human mammary epithelial cells stably expressing HER2 (MCF10A.HER2; Ueda et al., 2004)
Experiment: EphA2 and ErbB2 phosphorylation in MCF10A cells overexpressing HER2 after ErbB2 kinase inhibitor (immunoprecipitation/immunoblot)
Type: cell-based
Conditions: 10 mg/ml AG825 for 24 or 48 hours
Protocol: For Ras and Rho/Rac pulldown assays, tumor tissue was collected, weighed, mechanically homogenized in phosphate buffered saline (PBS) pelleted, and resuspended in manufacturer recommended assay buffer (Upstate Biotechnology). Approximately […] tumor lysate was used per assay. Ras assays were performed using Raf-1 Ras binding domain-GST assay reagent (Upstate Biotechnology) as per manufacturer's protocol. Rho assays were performed using Rhotekin binding domain-GST reagents as previously described (Fang et al., 2005). For some co-immunoprecipitation assays, COST cells were co-transfected with […] each of myc-tagged erbB2 (pcDNA3-erbB2) and ephA2 (pcDNA3-EphA2) using Lipofectamine 2000 (Invitrogen). Cells were lysed in 1% NP-40 Buffer (10 mM Tris-HCl pH 7.5, 150 mM NaCl, 2 mM EDTA, 1% NP-40 plus 50 mM protease inhibitors). Lysates were used for immunoprecipitation with an anti-myc (Sigma-Aldrich) and anti-EphA2 antibodies (Santa Cruz, sc-924) antibodies. Immune complexes were resolved on SDS-PAGE and western blotted using anti-EphA2 and anti-myc antibodies. EphA2 was immunoprecipitated from MMTV-Neu cells, followed by treatment of half the samples with the 1 mM of the cross-linking agent DTSSP. Immunoprecipitates were subjected to western blot analysis using anti-ErbB2 (Neomarkers, 1:2000). EphA2 and ErbB2 were immunoprecipiated from MCF10A and MCF10A.HER2 cells as described above. […]

T1 sequence (P04626 23-1255): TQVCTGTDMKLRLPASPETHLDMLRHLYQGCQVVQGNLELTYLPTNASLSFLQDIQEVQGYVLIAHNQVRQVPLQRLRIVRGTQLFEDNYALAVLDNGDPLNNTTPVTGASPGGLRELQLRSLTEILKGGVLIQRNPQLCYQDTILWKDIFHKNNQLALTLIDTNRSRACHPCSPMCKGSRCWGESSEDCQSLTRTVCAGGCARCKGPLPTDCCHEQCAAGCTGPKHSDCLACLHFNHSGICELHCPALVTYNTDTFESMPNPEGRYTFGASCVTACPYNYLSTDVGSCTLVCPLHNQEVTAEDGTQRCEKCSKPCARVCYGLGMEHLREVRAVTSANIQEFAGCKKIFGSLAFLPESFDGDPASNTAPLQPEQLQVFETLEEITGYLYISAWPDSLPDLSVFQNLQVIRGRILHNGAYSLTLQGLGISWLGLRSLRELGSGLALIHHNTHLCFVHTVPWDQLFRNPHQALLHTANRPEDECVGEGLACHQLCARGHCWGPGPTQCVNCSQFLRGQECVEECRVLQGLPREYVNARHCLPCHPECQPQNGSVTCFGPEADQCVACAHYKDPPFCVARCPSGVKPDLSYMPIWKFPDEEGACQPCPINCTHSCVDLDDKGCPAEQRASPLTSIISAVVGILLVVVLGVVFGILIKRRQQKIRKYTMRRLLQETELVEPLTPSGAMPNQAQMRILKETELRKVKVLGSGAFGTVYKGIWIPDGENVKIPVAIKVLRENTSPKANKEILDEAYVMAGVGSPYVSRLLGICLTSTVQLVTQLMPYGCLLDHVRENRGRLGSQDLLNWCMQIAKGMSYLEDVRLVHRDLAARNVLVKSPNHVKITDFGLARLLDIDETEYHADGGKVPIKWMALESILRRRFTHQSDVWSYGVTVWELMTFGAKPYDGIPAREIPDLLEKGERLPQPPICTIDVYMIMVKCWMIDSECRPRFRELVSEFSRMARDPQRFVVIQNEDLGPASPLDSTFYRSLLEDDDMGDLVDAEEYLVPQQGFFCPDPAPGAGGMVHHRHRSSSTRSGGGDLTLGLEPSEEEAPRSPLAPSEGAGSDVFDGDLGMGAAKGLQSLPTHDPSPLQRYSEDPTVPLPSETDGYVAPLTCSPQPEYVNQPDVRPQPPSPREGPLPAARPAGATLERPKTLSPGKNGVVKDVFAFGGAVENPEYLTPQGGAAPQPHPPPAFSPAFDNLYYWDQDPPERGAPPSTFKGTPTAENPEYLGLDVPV

- EphA2 phosphorylation: reduced
- ErbB2 phosphorylation: reduced
Structure (SMILES): COc1cc(/C=C(\C#N)C(N)=O)cc(CSc2nc3ccccc3s2)c1O [AG825]
